Assay results from US11707445B2, “Composition for blocking angiogenesis” (Indiana University Research and Technology Corporation, priority 2015, dated 2023).

Key:
mouse choroidal tissues = experiment: Choroidal sprouting assay (ex vivo); assay type: cell-based, C57Bl/6J mice
Method: Sprouting of choroidal layers was tested as previously described in Shao et a., PLoS One, 2013 8(7): e69552. Briefly, 6-8 week old C57Bl/6J mice eyes were enucleated immediately after euthanasia. Peripheral parts of the choroid/sclera layer were separated and cut into pieces. Choroid fragments were then placed on growth factor-reduced Matrigel™ (30 μL/well; BD Biosciences, San Jose, Calif.) in 24-well plates. The plates were then incubated at 37° C. for about 10 minutes to allow the Matrigel to solidify. Endothelial Growth Medium (EGM-2) was prepared by mixing the contents of an EGM-2 “Bullet Kit” (Cat no. CC-4176) with Endothelial Basal Medium (EBM) (Lonza, Walkersville, Md.). Penicillin-streptomycin and 2.5 mg/mL Plasmocin were added to the final medium and used for this assay. Medium (500 μL) was added to each well of the plate and incubated at 37° C. with 5% CO2 for 72 hours before any treatments were added. Medium was changed after 48 hours. SH-11037 was synthesized as taught in WO2014/182695 (incorporated by reference to the extent it is consistent herewith) and dissolved in DMSO and then tested at 0.03, 0.3, and 1 μM concentrations for 48 hours. The final concentration of DMSO in each well was 0.2%. Trypan blue 0.4% solution (Fisher Scientific, Pittsburgh, Pa., USA) was used to assess cell viability. Images were taken using an EVOS-fl digital microscope (AMG, Mill Creek, Wash., USA) and data were analyzed as the sprouting distance in four different directions using ImageJ software v. 1.48V.

retina [1] = experiment: In vivo toxicity of intravitreally injected SH-11037 (histology, immunofluorescence); set-up: species or system C57BL/6J mice
Method: (§1) All mouse experiments followed the guidelines of the Association for Research in Vision and Ophthalmology Statement for the Use of Animals in Ophthalmic and Visual Research and were approved by the Indiana University School of Medicine Institutional Animal Care and Use Committee. Wild-type female C57BL/6J mice, 6-8 weeks of age, were purchased from the Jackson Laboratory (Bar Harbor, Me.). Intraperitoneal injections of 17.5 mg/kg ketamine hydrochloride and 2.5 mg/kg xylazine mixture were used for anesthesia.
(§2) Injections were given under anesthesia in a 0.5 μL volume using a 33-gauge needle. The needle was kept in place for 1 minute to prevent the reflux of solution when the needle was removed. SH-11037 was dissolved in DMSO then diluted in PBS to a final concentration of 0.5% DMSO. Eyes were numbed with tetracaine solution before the injection, and triple antibiotic ointment was used immediately after the injection to prevent infection. A masked researcher undertook imaging and analysis to avoid bias.
Toxicity of intravitreally injected SH-11037 was initially assessed by histology and immunofluorescence. The presence of acute ocular toxicity was investigated by injecting SH-11037 at different concentrations (0.1, 1, 10, and 100 μM), while long-term effects were tested by injecting 10 μM SH-11037. Mice were sacrificed 3 and 14 days post injections, respectively. Eyes were enucleated and fixed in 4% PFA overnight, and then the eyes were paraffin embedded and sectioned at 5 μm thickness by the Indiana University School of Medicine Histology Core. Mayer's hematoxylin and eosin (H&E) staining was performed, and retinal morphology was quantified by calculating the ratio of A (the distance from the ganglion cell layer to the outer edge of the inner nuclear layer) to B (the distance from the ganglion cell layer to the outer edge of the outer nuclear layer).
For immunofluorescence, sections were deparaffinised with xylenes and ethanol series and boiled in citrate buffer for 5 minutes. […]

neural retina function = experiment: Retinal electrophysiology (ERG) after intravitreal injection; assay type: in vivo, C57BL/6J mice; details: 14 days after 100 μM SH-11037 injections, relative to control eyes
Method: as §1
Injections were given under anesthesia in a 0.5 μL volume using a 33-gauge needle. The needle was kept in place for 1 minute to prevent the reflux of solution when the needle was removed. […]
Electroretinograms (ERG) were obtained from animals 14 days post intravitreal injection of 100 μM SH-11037, 0.2 ng mouse anti-VEGF neutralizing antibody (R&D Systems, Minneapolis, Minn., USA)+0.3 μM SH-11037, or vehicle control and performed as described in Cai et al., EMBO Mol Med, 2012 4(9):980-91. Briefly, scotopic rod recordings were performed on overnight dark-adapted mice, with 10 increasing light intensities of white light and responses were recorded with a visual electrodiagnostic system (UTAS-E 2000; LKC Technologies, Gaithersburg, Md.). […] Ten responses were recorded and averaged at each light intensity. […]

CNV lesions = experiment: Laser-induced choroidal neovascularization (L-CNV) model; assay type: in vivo, C57BL/6J mice; details: for reduction in CNV lesion volume (Z-stack images of agglutinin-stained choroidal flatmounts): day 14, vs vehicle control; for reduction of CNV lesion volume: day 14, vs control eyes, P<0.01
Method: as §1, §2
Laser photocoagulation was performed as described in Sulaiman et al., J Ocul Pharmacol Ther, 2015 and Poor et al., Invest Opthalmol Vis Sci, 2014 55(10): 6525-34. Briefly, eyes were dilated using 1% tropicamide, then underwent laser treatment using 50 μm spot size, 50 ms duration, and 250 mW pulses of an ophthalmic argon green laser, wavelength 532 nm, coupled to a slit lamp. A coverslip was used to allow viewing of the posterior pole of the eye. Each eye received 3 laser burns centered around the optic nerve at 12, 3, and 9 o'clock positions. The appearance of a bubble at the site of laser application was used to identify laser-induced damage of Bruch's membrane. Lesions in which bubbles were not observed were excluded from analysis. The effect of SH-11037 on the L-CNV model using final estimated vitreal concentrations of 0.1, 0.3, 1, or 10 μM SH-11037 was tested. Anti-mouse VEGF164 neutralizing antibody (R&D Systems, Minneapolis, Minn.) was tested at 0.2, 1, and 5 ng/eye. Vehicle (PBS+0.5% DMSO) was used as a negative control. All injections were given a single time, immediately after laser treatment. In testing the effects of SH-11037 on existing L-CNV lesions, vehicle, anti-VEGF164, and SH-11037 (10 μM) injections were given a single time, 5 days post laser.
Optical coherence tomography (OCT) was performed at the indicated times using the Micron III intraocular imaging system (Phoenix Research Labs, Pleasanton, Calif.). Before the procedure, eyes were dilated with 1% tropicamide solution (Alcon, Fort Worth, Tex.) and lubricated with hypromellose ophthalmic demulcent solution (Gonak) (Akorn, Lake Forest, Ill.). Mice were then placed on a custom heated stage that moves freely to position the mouse eye for imaging. Several horizontal and vertical images were taken per lesion to allow calculation of CNV lesion volume. Three-dimensional quantification of CNV lesion volumes was performed using an ellipsoid quantification method as described in Sulaiman et al., J Ocul Pharmacol Ther, 2015, 31(8):447-54. FA was performed 14 days post laser by intraperitoneal injections of 50 μL of 25% fluorescein sodium (Fisher Scientific, Pittsburgh, Pa.). Fundus images were taken using the Micron III system and Streampix software.
Choroidal flatmount preparation, staining, and imaging were done as described in Sulaiman et al., J Ocul Pharmacol Ther, 2015, 31(8):447-54. ImageJ software was used to analyze Z-stack images; the summation of the whole stained area in each section, multiplied by the distance between sections (3 μm) was used as an index for the CNV lesion volume. The volumes of the 3 lesions in each eye were averaged and considered as an n=1 for statistical analysis.

[2] = test system: pre-existing retinal vasculature; experiment: Staining of pre-existing retinal vasculature (isolectin B4 retina flatmounts); assay type: in vivo, C57BL/6J mice; details: 14 days after 100 μM intravitreal injection, vs vehicle control
[3] = test system: retinal neovascularization; details: in vivo; cited from earlier work
[4] = test system: human retinal endothelial cells (HRECs); details: cited from earlier work
[5] = test system: new vessel growth induced by bFGF; details: chick chorioallantoic membrane; cited from earlier work
[6] = test system: choroidal neovascularization; details: mouse, in vivo; cited from earlier work
retina [7] = details: 10 μM into the vitreous of normal adult mice; cited from earlier work

SMILES: COc1ccc(CC2COc3cc(OC)c(OC)c(OC)c3C2=O)cc1OC(=O)[C@H](Cc1ccccc1)NC(=O)OC(C)(C)C (some centres unmarked) [SH-11037]
- ability of choroidal tissues to form sprouts (sprouting distance) (mouse choroidal tissues; 0.03, 0.3, 1 μM, 48 hours, concentration-dependent, vs vehicle treated controls): significantly inhibited
- cell viability of choroidal sprouts by Trypan blue staining (mouse choroidal tissues; 48 hours, 1 μM SH-11037 vs DMSO controls): absence of significant cell death
- potent inhibitory concentration in choroidal sprouting (mouse choroidal tissues; ex vivo choroid microvascular tissue): 0.03 µM
- retinal thickness (A/B ratio) morphological changes (retina [1]; intravitreal SH-11037, 3 and 14 days post injections, vs vehicle-treated and uninjected eyes): absence of morphological changes
- GFAP, cleaved caspase 3, TUNEL staining and MCP1 (retinal injury, apoptosis, inflammation) (retina [1]; intravitreal SH-11037, 3 and 14 days, vs vehicle-treated controls): Neither shorter-nor longer-term SH-11037 treated retina showed any significant increases
- histological changes in H&E stained retinal sections (retina [1]; intravitreal SH-11037 up to 100 μM final concentration, 3 and 14 days post injection, vs vehicle and no injection control eyes): no histological changes
- ERG scotopic a- and b-waves, and photopic b-waves (neural retina function): not significantly different
- reduction in CNV lesion volume (Z-stack images of agglutinin-stained choroidal flatmounts) (CNV lesions; 0.1 μM intravitreal): no reduction
- reduction in CNV lesion volume (Z-stack images of agglutinin-stained choroidal flatmounts) (CNV lesions; 0.3 μM intravitreal): no reduction
- reduction of CNV lesion volume (CNV lesions; 1 μM intravitreal): about 42%
- vascular volumes of pre-existing CNV lesions relative to vehicle (CNV lesions; 10 μM intravitreal single injection 5 days post laser, quantified 14 days post laser): significantly suppressed
- reduction of CNV lesion volume (CNV lesions; 10 μM intravitreal): ~55%
- leakiness of CNV lesions by fluorescein angiography (CNV lesions; 14 days post laser, relative to vehicle treatment): reduced leakiness
- CNV vascular volumes at day 14 versus 5 days control (CNV lesions; injection 5 days post laser (10 μM SH-11037; 5 ng anti-VEGF164)): no significant difference
- CNV lesion volumes by OCT, ellipsoid volume quantification (CNV lesions; intravitreal 0.1, 0.3, 1, 10 μM immediately after laser, 7 days post-laser, vs vehicle, dose-dependent): significantly lower
- changes in pre-existing retinal vessels [2]: No changes
- pathogenic retinal neovascularization in OIR model [3]: significantly suppressed
- induction of apoptosis in HRECs [4]: without inducing apoptosis
- HREC migration ([4]; concentration-dependent): inhibited
- HREC proliferation ([4]; concentration-dependent): inhibited
- HREC tube formation ([4]; concentration-dependent): inhibited

SMILES: COc1ccc(CC2COc3cc(O)c(OC)c(O)c3C2=O)cc1O (centres unmarked) [cremastranone, 5,7-dihydroxy-3-(3-hydroxy-4-methoxybenzyl)-6-methoxychroman-4-one]
- blocking new vessel growth induced by bFGF [5]: as effective as retinoic acid
- pathogenic retinal neovascularization in OIR model [3]: showed efficacy
- pathogenic neovascularization in laser photocoagulation CNV model [6]: showed efficacy
- apoptosis of retinal cells (retina [7]): nor did it induce apoptosis
- cytotoxic or inflammatory effects on the retina (retina [7]): no cytotoxic or inflammatory effects
